One data set relates to DENV-2. As to the kind of experiment: Anti-DENV activity assay, DENV RNA level by qRT-PCR in infected Huh-7 cells. In kind it is cell-based, dengue virus 2. As to conditions: for EC50: DENV2, Huh-7 cells, MOI 0.2, treatment 2 h post infection, RNA at 72 h, read-out: EC50, half maximal effective concentration, anti-DENV-2 activity. The method, then: (§1) Huh-7 cells were cultured in Dulbecco’s modified Eagle’s medium (DMEM) containing 10% fetal bovine serum, 1% non-essential amino acids, and 1% antibiotic-antimycotic in a 5% CO2 at 37 °C. Huh-7 cells were seeded at 24-well plate at density 5 × 10^4 cells/well and infected by DENV infection at a multiplicity of infection (MOI) of 0.2 followed by test compounds treatment 2 h post infection. Total cellular RNA were harvested at 72 h post-infection, and DENV RNA level was analyzed using quantitative real-time reverse-transcription polymerase chain reaction (qRT-PCR) with specific primers against DENV NS5 gene. DENV RNA level was normalized by cellular glyceraldehydes-3-phosphate dehydrogenase (gapdh) mRNA level. 2′-C-methylcytidine (2′CMC) served as positive control. DENV of different serotypes (DENV-1: DN8700828; DENV-2: DN454009A; DENV-3: DN8700829A; DENV-4: S9201818) were obtained from the Centers for Disease Control, Department of Health, Taipei, Taiwan.

A further data set is described as follows: Cytotoxicity assay (MTS). It is filed as cell-based. The following applies: human, Huh-7 cells, read-out: CC50, half maximal cytotoxicity concentration. As for the experimental part:
Huh-7 cells were seeded onto 96-well plate at a density of 5 × 10^3 cells per well, followed by compound treatment for 72 h. The cell viability was determined using a standard MTS assay (CellTiter 96® Aqueous One Solution Cell Proliferation assay system, Promega, Madison, WI, USA) according to the manufacturer’s instructions.

A further data set addresses DENV NS2B/NS3 protease (Dengue virus type 2, UniProt P29990). Briefly: cell-based. From the text:
The DENV RdRp activity reporter system was used to determine the anti-DENV RdRp activity as described before. The NS3 protease reporter-based assay was used to determine the anti-DENV protease activity. The Huh-7 cells were transfected with DENV NS2B/NS3 protease reporter vector pEG(∆4B/5)NLuc carrying a specific DENV protease cleavage peptide sequences and the DENV protease expression vector. […] The supernatant was collected to analyze the nano luciferase (NLuc) activity by Nano-Glo® Luciferase Assay System following the manufacturer’s instructions (Promega, Madison, WI, USA).

Another data set deals with DENV-4. Briefly: Anti-DENV activity assay, DENV RNA level by qRT-PCR in infected Huh-7 cells. It is filed as cell-based. As to conditions: Dengue virus, DENV4, MOI 0.2, 72 h. The method, then: as §1
The subject of a further data set is DENV-3. The data set is described as above. In kind it is cell-based. As to conditions: Dengue virus, DENV3, MOI 0.2, 72 h. As for the experimental part: as §1
The test system of a further data set is DENV-1. The data set is described as above. In kind it is cell-based. As to conditions: Dengue virus, DENV1, MOI 0.2, 72 h. As for the experimental part: as §1
For data set [1], the system named is DENV. In kind it is cell-based, dengue virus. The following applies: 10 μM, TCID50 assay.
For data set [2], the system named is DENV. More on the design: method as in PMID 22201648. As to conditions: cited from earlier work.

In brackets after ≈: the same amount, converted by molar mass.

These results are taken from paper PMC4999912, “Anti-Dengue Virus Constituents from Formosan Zoanthid Palythoa mutuki” (Marine Drugs, 2016).

A word on the IC50: it is the concentration that inhibits the measured activity by half.

Chain of DENV NS2B/NS3 protease (P29990 1476-2093): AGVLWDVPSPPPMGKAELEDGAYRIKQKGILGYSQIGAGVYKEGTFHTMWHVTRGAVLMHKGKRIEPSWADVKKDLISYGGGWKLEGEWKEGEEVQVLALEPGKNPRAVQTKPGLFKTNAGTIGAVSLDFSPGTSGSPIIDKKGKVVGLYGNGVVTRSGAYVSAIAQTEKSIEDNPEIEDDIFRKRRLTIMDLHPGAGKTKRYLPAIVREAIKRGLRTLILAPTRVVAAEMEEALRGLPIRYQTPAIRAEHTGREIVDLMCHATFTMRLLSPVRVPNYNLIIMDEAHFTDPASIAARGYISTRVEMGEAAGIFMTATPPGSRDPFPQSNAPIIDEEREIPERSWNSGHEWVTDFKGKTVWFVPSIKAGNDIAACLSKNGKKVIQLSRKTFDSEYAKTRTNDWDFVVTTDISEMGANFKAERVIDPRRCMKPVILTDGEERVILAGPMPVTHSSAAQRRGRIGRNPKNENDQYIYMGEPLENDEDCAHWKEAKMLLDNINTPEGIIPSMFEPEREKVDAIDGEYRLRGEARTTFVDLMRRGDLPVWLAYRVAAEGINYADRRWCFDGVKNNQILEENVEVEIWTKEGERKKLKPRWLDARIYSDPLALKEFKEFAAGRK
Chain of DENV NS2B/NS3 protease (P29990 1346-1475): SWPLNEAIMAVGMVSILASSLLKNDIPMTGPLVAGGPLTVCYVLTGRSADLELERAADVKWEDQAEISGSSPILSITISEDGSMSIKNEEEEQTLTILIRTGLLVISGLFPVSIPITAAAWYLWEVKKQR

As to `C[C@@]1(O)[C@H](O)[C@@H](CO)O[C@H]1n1ccc(N)nc1=O` [2′CMC, 2′-C-methylcytidine, reference compound], in the data set with DENV-2 (CC50 (Huh-7) / EC50 (DENV-2)), the “SI, selectivity index, CC50/EC50” value is more than 7.2. Besides, the EC50 in the data set with DENV-2 (Dengue virus) is 13.23 ± 0.07 µM. Besides, the CC50 at 72 h in the data set “Cytotoxicity assay (MTS)” came to 94.8 ± 4.15 µM.

For `CC(C)(O)CCC(O)C(C)(O)C1CCC2(O)C3=CC(=O)C4C(O)CCCC4(C)C3CCC12C` (centres unmarked) [Compound 1, palythone A], in the data set with DENV-2, the “anti-DENV-2 activity in words” value is recorded as “weak anti-DENV-2 activities”. Also, the EC50 in the data set on DENV-2 (Dengue virus) turned out to be 54 ± 2.17 µM.

As for `CC(=O)O[C@H]1C[C@@]2(C)[C@@H](C[C@H]1O)C(=O)C=C1[C@@H]2CC[C@]2(C)[C@@H]([C@@](C)(O)[C@H](O)CCC(C)(C)O)CC[C@@]12O` [Compound 2, 20-hydroxyecdysone 2-acetate], in the data set with DENV-2 (Dengue virus), the EC50 is more than 100 µM. The CC50 at 72 h in “Cytotoxicity assay (MTS)” is more than 200 µM.

For the molecule `CC(C)(O)CC[C@@H](O)[C@](C)(O)[C@H]1CC[C@@]2(O)C3=CC(=O)[C@@H]4CC[C@@H](O)C[C@]4(C)[C@H]3CC[C@]12C` [Compound 3, 3-deoxy-20-hydroxyecdysone], in the data set on DENV-2 (Dengue virus), the EC50 was more than 100 µM. In addition, the CC50 at 72 h in “Cytotoxicity assay (MTS)” is more than 200 µM.

For `C[C@@H](C[C@@H](O)[C@](C)(O)[C@H]1CC[C@@]2(O)C3=CC(=O)[C@@H]4C[C@@H](O)[C@@H](O)C[C@]4(C)[C@H]3CC[C@]12C)C(C)(C)O` [Compound 4, 24-epi-makisterone A], the “anti-DENV-2 activity in words” value in the data set with DENV-2 is recorded as “weak anti-DENV-2 activities”. In addition, the EC50 in the data set with DENV-2 (Dengue virus) stood at 46.5 ± 0.59 µM.

For `CC(=O)OC1CC(C)(C)C(=C=CC(C)=CC=CC=CC=C(C)C=C2C=C(C=CC34OC3(C)CC(O)CC4(C)C)C(=O)O2)C(C)(O)C1` (centres unmarked) [Compound 9, peridinin], in the data set with DENV-2 (Dengue virus, DENV2, Huh-7, read-out: IC50, antiviral activity (abstract)), the half-maximal inhibitory concentration (IC50) is 4.5 ± 0.46 µg/mL (≈ 7.13 µM). Further, the EC50 in the data set with DENV-2 (Dengue virus) worked out at 4.5 ± 0.46 µM; on DENV NS2B/NS3 protease it was 8.5 ± 0.41 µM; in the data set on DENV-4, 6.51 ± 0.3 µM; in the data set on DENV-3 it was 5.84 ± 0.19 µM; in the data set with DENV-1 it was 7.62 ± 0.17 µM. Besides, the CC50 at 72 h in the data set “Cytotoxicity assay (MTS)” was 133 ± 3.21 µM. In the data set on DENV [1], the “decrease of the viral titer as compared to mock-treatment” value amounted to 2 ± 0.6 log10.

Consider `O=c1c(O)c(-c2ccc(O)c(O)c2)oc2cc(O)cc(O)c12` [quercetin], for which the “IC50, anti-DENV activity” value in the data set on DENV [2] is 35.7 µg/mL (≈ 118 µM).
